Assay results as given in patent US20090062251A1, “Novel Compounds 002” (ASTRAZENECA AB, priority 2007, published 2009).

Tests used:
[1] = molecular target: T1, Human CB1 receptor (hCB1) (Homo sapiens, UniProt P21554); experiment: hCB1 GTPγS binding; format: biochemical; conditions: for EC50: hCB1 membranes, GTPγ35S, 10-point dose-response; for Emax: maximal stimulated binding determined with 10 μM Win 55,212-2
T1 construct: purchased Receptor Biology
Method: hCB1 and hCB2 GTPγS Binding
Human CB1 receptor from Receptor Biology (hCB1) or human CB2 receptor membranes (BioSignal) are thawed at 37° C., passed 3 times through a 25-gauge blunt-end needle and diluted in the GTPγS binding buffer (50 mM Hepes, 20 mM NaOH, 100 mM NaCl, 1 mM EDTA, 5 mM MgCl2, pH 7.4, 0.1% BSA). […] The basal and maximal stimulated binding is determined in absence and presence of 1 μM (hCB2) or 10 μM (hCB1) Win 55, 212-2 respectively. The membranes are pre-incubated for 5 minutes with 56.25 μM (hCB2) or 112.5 μM (hCB1) GDP prior to distribution in plates (15 μM (hCB2) or 30 μM (hCB1) GDP final). The plates are vortexed and incubated for 60 minutes at room temperature, filtered on Unifilters GF/B (presoaked in water) with the Tomtec or Packard harvester using 3 ml of wash buffer (50 mM Tris, 5 mM MgCl2, 50 mM NaCl, pH 7.0). The filters are dried for 1 hour at 55° C. The radioactivity (cpm) is counted in a TopCount (Packard) after adding 65 μl/well of MS-20 scintillation liquid. Antagonist reversal studies are done in the same way except that (a) an agonist dose-response curve is done in the presence of a constant concentration of antagonist, or (b) an antagonist dose-response curve is done in the presence of a constant concentration of agonist.

[2] = molecular target: T1, Human CB1 receptor (hCB1); experiment: hCB1 receptor binding (3H-CP55,940 displacement); conditions: hCB1 membranes, Ki=IC50/(1+[rad]/Kd)
Method: hCB1 and hCB2 Receptor Binding
Human CB1 receptor from Receptor Biology (hCB1) or human CB2 receptor from BioSignal (hCB2) membranes are thawed at 37° C., passed 3 times through a 25-gauge blunt-end needle, diluted in the cannabinoid binding buffer (50 mM Tris, 2.5 mM EDTA, 5 mM MgCl2, and 0.5 mg/mL BSA fatty acid free, pH 7.4) and aliquots containing the appropriate amount of protein are distributed in 96-well plates. […] The total and non-specific binding are determined in the absence and presence of 0.2 μM of HU210 respectively. The plates are vortexed and incubated for 60 minutes at room temperature, filtered through Unifilters GF/B (presoaked in 0.1% polyethyleneimine) with the Tomtec or Packard harvester using 3 mL of wash buffer (50 mM Tris, 5 mM MgCl2, 0.5 mg BSA pH 7.0). The filters are dried for 1 hour at 55° C. The radioactivity (cpm) is counted in a TopCount (Packard) after adding 65 μl/well of MS-20 scintillation liquid.
Based on the above assays, the dissociation constant (Ki) for a particular compound of the invention towards a particular receptor is determined using the following equation:
[rad] is a standard or reference radioactive ligand concentration at that moment; and
Kd is the dissociation constant of the radioactive ligand towards the particular receptor.

T1 sequence (P21554 whole entry): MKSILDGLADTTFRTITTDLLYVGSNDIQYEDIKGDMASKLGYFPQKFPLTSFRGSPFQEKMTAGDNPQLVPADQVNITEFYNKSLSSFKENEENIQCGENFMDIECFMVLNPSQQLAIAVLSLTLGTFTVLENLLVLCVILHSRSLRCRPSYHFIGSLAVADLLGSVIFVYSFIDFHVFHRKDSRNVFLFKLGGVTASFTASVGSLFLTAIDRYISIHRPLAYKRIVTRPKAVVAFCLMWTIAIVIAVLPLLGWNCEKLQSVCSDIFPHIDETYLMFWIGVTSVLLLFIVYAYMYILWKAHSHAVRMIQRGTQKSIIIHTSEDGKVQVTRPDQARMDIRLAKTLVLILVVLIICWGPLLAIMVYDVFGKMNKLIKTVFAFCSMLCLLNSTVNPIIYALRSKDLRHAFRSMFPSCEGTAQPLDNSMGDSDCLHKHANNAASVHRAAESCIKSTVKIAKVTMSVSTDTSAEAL

SMILES	EC50 [1]	Emax [1]	Ki [2]
CC(C)C(=O)NC1CCCN(C(=O)c2ccc3c(c2)c2c(n3C)CCC(C3CCOCC3)C2)C1 (stereo not drawn) [2-methyl-N-[1-[9-methyl-6-(oxan-4-yl)5,6,7,8-tetrahydrocarbazole-3-carbonyl]-3-piperidyl]propanamide]	401 nM	118%	157 nM
CN(CC(=O)NC1CC1)C(=O)c1ccc2c(c1)c1c(n2S(C)(=O)=O)CCC(C2CCCCC2)C1 (stereo not drawn) [6-cyclohexyl-N-(cyclopropylcarbamoylmethyl)-N-methyl-9-methylsulfonyl-5,6,7,8-tetrahydrocarbazole-3-carboxamide]	31.3 nM	111%	7.9 nM
CC(C)S(=O)(=O)n1c2c(c3cc(C(=O)N(C)CC(=O)NC4CC4)ccc31)CC(C1CCCCC1)CC2 (stereo not drawn) [6-cyclohexyl-N-(cyclopropylcarbamoylmethyl)-N-methyl-9-propan-2-ylsulfonyl-5,6,7,8-tetrahydrocarbazole-3-carboxamide]	43.9 nM	110%	21.2 nM
CCNC(=O)CN(CC)C(=O)c1ccc2c(c1)c1c(n2CC2CC2)CCC(C2CCOCC2)C1 (stereo not drawn) [9-(cyclopropylmethyl)-N-ethyl-N-(ethylcarbamoylmethyl)-6-(oxan-4-yl)-5,6,7,8-tetrahydrocarbazole-3-carboxamide]	157 nM	90%	65.2 nM
CCN(CC(=O)NC(C)C)C(=O)c1ccc2c(c1)c1c(n2C2CCC2)CCC(C2CCOCC2)C1 (stereo not drawn) [9-cyclobutyl-N-ethyl-6-(oxan-4-yl)-N-(propan-2-ylcarbamoylmethyl)-5,6,7,8-tetrahydrocarbazole-3-carboxamide]	293 nM	70%	152 nM
CCN(CC(=O)NCCF)C(=O)c1ccc2c(c1)c1c(n2C2CCC2)CCC(C2CCOCC2)C1 (stereo not drawn) [9-cyclobutyl-N-ethyl-N-(2-fluoroethylcarbamoylmethyl)-6-(oxan-4-yl)-5,6,7,8-tetrahydrocarbazole-3-carboxamide]	279 nM	80%	131 nM
CCNC(=O)CN(CC)C(=O)c1ccc2c(c1)c1c(n2C2CCC2)CCC(C2CCOCC2)C1 (stereo not drawn) [9-cyclobutyl-N-ethyl-N-(ethylcarbamoylmethyl)-6-(oxan-4-yl)-5,6,7,8-tetrahydrocarbazole-3-carboxamide]	233 nM	82%	113 nM
CCn1c2c(c3cc(C(=O)N(C)CCCC(=O)NCCF)ccc31)CC(C1CCOCC1)CC2 (stereo not drawn) [9-ethyl-N-[3-(2-fluoroethylcarbamoyl)propyl]-N-methyl-6-(oxan-4-yl)-5,6,7,8-tetrahydrocarbazole-3-carboxamide]	60.3 nM	119%	25.8 nM
CCn1c2c(c3cc(C(=O)N(C)CCCC(=O)NCCO)ccc31)CC(C1CCOCC1)CC2 (stereo not drawn) [9-ethyl-N-[3-(2-hydroxyethylcarbamoyl)propyl]-N-methyl-6-(oxan-4-yl)-5,6,7,8-tetrahydrocarbazole-3-carboxamide]	597 nM	119%	236 nM
CCn1c2c(c3cc(C(=O)N(C)CCCC(=O)NCC(F)(F)F)ccc31)CC(C1CCOCC1)CC2 (stereo not drawn) [9-ethyl-N-methyl-6-(oxan-4-yl)-N-[3-(2,2,2-trifluoroethylcarbamoyl)propyl]-5,6,7,8-tetrahydrocarbazole-3-carboxamide]	228 nM	98%	110 nM
CCn1c2c(c3cc(C(=O)N(C)CCCC(=O)NC)ccc31)CC(C1CCOCC1)CC2 (stereo not drawn) [9-ethyl-N-methyl-N-[3-(methylcarbamoyl)propyl]-6-(oxan-4-yl)-5,6,7,8-tetrahydrocarbazole-3-carboxamide]	146 nM	121%	59.2 nM
Cn1c2c(c3cc(C(=O)N4CC[C@H](C(=O)NCC(F)F)C4)ccc31)CC(C1CCOCC1)CC2 (stereo partly drawn) [(3S)—N-(2,2-difluoroethyl)-1-[9-methyl-6-(oxan-4-yl)5,6,7,8-tetrahydrocarbazole-3-carbonyl]pyrrolidine-3-carboxamide]	82.6 nM	125%	49.5 nM
Cn1c2c(c3cc(C(=O)N4CC[C@H](C(=O)NCCF)C4)ccc31)CC(C1CCOCC1)CC2 (stereo partly drawn) [(3S)—N-(2-fluoroethyl)-1-[9-methyl-6-(oxan-4-yl)5,6,7,8-tetrahydrocarbazole-3-carbonyl]pyrrolidine-3-carboxamide]	–	119%	30.5 nM
Cn1c2c(c3cc(C(=O)N4CC[C@H](C(=O)NCC5CC5)C4)ccc31)CC(C1CCOCC1)CC2 (stereo partly drawn) [(3S)—N-(cyclopropylmethyl)-1-[9-methyl-6-(oxan-4-yl)5,6,7,8-tetrahydrocarbazole-3-carbonyl]pyrrolidine-3-carboxamide]	251 nM	117%	109 nM
CCNC(=O)[C@H]1CCN(C(=O)c2ccc3c(c2)c2c(n3C)CCC(C3CCOCC3)C2)C1 (stereo partly drawn) [(3S)—N-ethyl-1-[9-methyl-6-(oxan-4-yl)5,6,7,8-tetrahydrocarbazole-3-carbonyl]pyrrolidine-3-carboxamide]	103 nM	122%	69.9 nM
CCn1c2c(c3cc(C(=O)N4CCC(C)CC4)ccc31)CC(C1CCCCC1)CC2 (stereo not drawn) [(6-cyclohexyl-9-ethyl-5,6,7,8-tetrahydrocarbazol-3-yl)-(4-methyl-1-piperidyl)methanone]	234 nM	90%	82.3 nM
CCS(=O)(=O)n1c2c(c3cc(C(=O)N4CCC(C)CC4)ccc31)CC(C1CCCCC1)CC2 (stereo not drawn) [(6-cyclohexyl-9-ethylsulfonyl-5,6,7,8-tetrahydrocarbazol-3-yl)-(4-methyl-1-piperidyl)methanone]	20 nM	107%	15.2 nM
CC1CCN(C(=O)c2ccc3c(c2)c2c(n3C)CCC(C3CCCCC3)C2)CC1 (stereo not drawn) [(6-cyclohexyl-9-methyl-5,6,7,8-tetrahydrocarbazol-3-yl)-(4-methyl-1-piperidyl)methanone]	65.1 nM	106%	29.5 nM
CC1CCN(C(=O)c2ccc3c(c2)c2c(n3S(C)(=O)=O)CCC(C3CCCCC3)C2)CC1 (stereo not drawn) [(6-cyclohexyl-9-methylsulfonyl-5,6,7,8-tetrahydrocarbazol-3-yl)-(4-methyl-1-piperidyl)methanone]	277 nM	89%	75.3 nM
CN(CCCC(=O)NCCO)C(=O)c1ccc2c(c1)c1c(n2C)CC[C@@H](C2CCOCC2)C1 [(R)—N-(4-(2-Hydroxyethylamino)-4-oxobutyl)-N,9-dimethyl-3-(tetrahydro-2H-pyran-4-yl)-2,3,4,9-tetrahydro-1H-carbazole-6-carboxamide]	173 nM	120%	69 nM
CN(C(=O)c1ccc2c(c1)c1c(n2C)CC[C@@H](C2CCOCC2)C1)[C@H](CO)CCC(=O)NCCF [(R)—N-((S)-5-(2-Fluoroethylamino)-1-hydroxy-5-oxopentan-2-yl)-N,9-dimethyl-3-(tetrahydro-2H-pyran-4-yl)-2,3,4,9-tetrahydro-1H-carbazole-6-carboxamide]	61 nM	118%	26 nM
CCNC(=O)CC[C@@H](CO)N(C)C(=O)c1ccc2c(c1)c1c(n2C)CC[C@@H](C2CCOCC2)C1 [(R)—N-((S)-5-(Ethylamino)-1-hydroxy-5-oxopentan-2-yl)-N,9-dimethyl-3-(tetrahydro-2H-pyran-4-yl)-2,3,4,9-tetrahydro-1H-carbazole-6-carboxamide]	79 nM	126%	36 nM
CCN(CC(=O)NCC(F)F)C(=O)c1ccc2c(c1)c1c(n2C)CCC(C2CCOCC2)C1 (stereo not drawn) [N-(2,2-difluoroethylcarbamoylmethyl)-N-ethyl-9-methyl-6-(oxan-4-yl)-5,6,7,8-tetrahydrocarbazole-3-carboxamide]	39.9 nM	116%	17.1 nM
Cn1c2c(c3cc(C(=O)N4CC(CC(=O)NC5CC5)C4)ccc31)CC(C1CCOCC1)CC2 (stereo not drawn) [N-cyclopropyl-2-[1-[9-methyl-6-(oxan-4-yl)5,6,7,8-tetrahydrocarbazole-3-carbonyl]azetidin-3-yl]acetamide]	–	–	2080 nM
